The text below walks through data of patent US12661353B2, “SPT5 inhibitors and uses thereof” (Yeda Research and Development Co. Ltd., priority 2020, dated 2026).

Assay [1] relates to pro-inflammatory genes A20, CCL20, IL6, IL8, CXCL2, JUNB and IEX1. Description: mRNA levels of pro-inflammatory genes under basal conditions, HeLa, RT-qPCR. The assay is classed as cell-based, human. Conditions: HeLa cells, 2 hours, 50 μM SPI. How it is done: (§1) Cell culture—HEK293T, HeLa, MCF7, Jurkat and mouse embryonic fibroblasts (MEFs) cells were grown and maintained in Dulbecco's modified Eagle's medium supplemented with 10% fetal calf serum (Gibco) and 1% penicillin-streptomycin. To avoid NF-κB activity, HeLa cells were kept from reaching confluence and re-plated no more than 10 times following initial thawing. To induce NF-κB activity, cells were treated with […] recombinant human TNF-α (Peprotech) for the indicated times. STHdh Q111 and STHdh Q7 striatal cell lines (Coriell Institute for Medical Research) were grown in Dulbecco's modified Eagle's medium supplemented with 10% fetal calf serum (Gibco), 1% penicillin-streptomycin and 0.4 mg/ml G418 at 33° C. The cells were re-plated no more than 5-6 times, as recommended.
(§2) RNA analysis—Total RNA was extracted using Tri-reagent (Bio-Lab Chemicals) and Direct-Zol™ RNA MiniPrep kit (Zymo Research). Following, cDNA was synthesized from […] of total RNA using a High-Capacity cDNA Reverse Transcription Kit (ABI, Thermo Fisher Scientific). cDNA samples were analyzed by quantitative PCR (qPCR) in a ViiA 7 Real-Time PCR System using Fast qPCRBIO SYBR Green Mix (PCR Biosystems).
Thus, a subset of Spt5-responsive pro-inflammatory genes from the aforementioned studies and from others (Aida et al., 2006; Fujita et al., 2009), namely A20, CCL20, IL6, IL8, CXCL2, JUNB and IEX1, were selected and the effect of the identified SPIs on their expression under basal conditions and in response to NF-κB activation was tested (FIGS. 2A-C and 3A-C). Specifically, for analyzing expression under basal conditions, Hela cells were treated with vehicle (DMSO) or SPI for 2 hours and following RNA was extracted and analyzed by RT-qPCR.
A general note: Real-time PCR tracks product formation cycle by cycle.

The test system is the same in assay [2]. Description: mRNA levels of pro-inflammatory genes under TNFα-induced conditions, HeLa, RT-qPCR. The assay is classed as cell-based, human. The following applies: for Down-regulating transcription of pro-inflammatory genes under TNFα induced conditions (i.e. inhibiting transcription elongation of pro-inflammatory genes induced by Spt5): HeLa cells, SPI 1 hour then TNFα 1 hour. The protocol: as §1, §2
In the next step, the effect of the identified SPIs on expression of the selected genes following NF-κB activation was analyzed. Specifically, Hela cells were pre-incubated with DMSO or SPI (50 μM or less) for 1 hour followed by treatment with TNFα for an additional 1 hour.

The subject of a further assay is mutant (Q111) Htt. Description: Htt mRNA levels in Q111 striatal cells, qPCR. The assay is classed as cell-based, mouse. Conditions: 48 hours. How it is done: as §1
Huntington's disease (HD) is an inherited genetic disorder caused by expansion trinucleotide CAG repeats (36 and higher) encoding glutamine (Q) in the huntingtin (Htt) gene. Expression of the mutant gene in neurons of the striatum and the frontal cortex leads to degeneration of neuronal cells that control body movements, emotions and intellect. […] To examine the potential effect of SPIs in this context, striatal cell lines established from wild type (Q7) or from mutant (Q111) Htt knock-in mice were used. In these cell lines the coding region of the first exon of the mouse Htt gene was replaced with the same region of human wild type (Q7) or mutant (Q111) Htt, as schematically shown in FIG. 6A. The two cell lines were treated for 48 hours with the identified SPIs and following the levels of Htt mRNA were determined.
The compounds were tested as described in Example 4 hereinabove. In brief, Q111 (or Q7, where indicated) expressing Striatal cells were treated with the tested compound at the indicated concentrations for 48 hours. Then, RNA was extracted and levels of Htt mRNA were determined by qRT-PCR and normalized to β-actin. The data was analysed using GraphPad Prism software.

The subject of another assay is Spt5 activities. Description: Combined effects on the various Spt5 activities (summary of Examples 1-4). The assay is classed as cell-based.

For `Cn1cc(-c2ccncc2)c(-c2ccc(OCc3ccc4ccccc4n3)cc2)n1` [SPI-95], the “Up-regulation of pro-inflammatory genes under basal conditions (i.e. inhibiting proximal promoter pausing of pro-inflammatory genes induced by Spt5)” value in assay [1] is “+ (+ >1.6)”. For the same compound, the “Down-regulating transcription of pro-inflammatory genes under TNFα induced conditions (i.e. inhibiting transcription elongation of pro-inflammatory genes induced by Spt5)” value in assay [2] was “++ (++ >65%)”. Moreover, the “effect on TNFα-induced levels of pro-inflammatory genes, in words” value in assay [2] (HeLa, SPI (50 μM or less) 1 hour then TNFα 1 hour) is recorded as “affected mainly the genes that were strongly induced by the TNFα treatment”. In addition, in the assay on mutant (Q111) Htt, the “effect on mutant (Q111) Htt mRNA expression, in words” value is given as “did not affect mutant Htt expression”. Further, in the assay on Spt5 activities, the “classification by effect on the various Spt5 activities, in words” value is “affected the basal and the TNFα-induced pro-inflammatory gene transcription”.

On to `O=C1C(=Cc2cccc(O)c2)CSCC1=Cc1cccc(O)c1` [SPI-157], for which the “Up-regulation of pro-inflammatory genes under basal conditions (i.e. inhibiting proximal promoter pausing of pro-inflammatory genes induced by Spt5)” value in assay [1] was “++ (++ >3)”. For the same compound, the “Down-regulating transcription of pro-inflammatory genes under TNFα induced conditions (i.e. inhibiting transcription elongation of pro-inflammatory genes induced by Spt5)” value in assay [2] is on record as “+++ (+++ represent >80% inhibition)”. For the same compound, in the assay with mutant (Q111) Htt, the “effect on mutant (Q111) Htt mRNA expression, in words” value was “did not affect mutant Htt expression”. In addition, the “classification by effect on the various Spt5 activities, in words” value in the assay with Spt5 activities is “affected the basal and the TNFα-induced pro-inflammatory gene transcription”.
